# Measured values from PubChem BioAssay AID330 (DTP/NCI, 2004).
# Several values for one entry are separate records, joined by “and”; a condition that tells them apart may be missing. Equal values may be shown once. Toxic doses and inconclusive results are not listed.
# Test system: P388 leukemia ip, CD2F1 mice, survival T/C
# Assay: NCI In Vivo Anticancer Drug Screen. Data for tumor model P388 Leukemia (intraperitoneal) in CD2F1 (CDF1) mice
# Conditions: endpoint: median survival time, higher = longer survival
# In short: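 Mice carrying the transplanted tumor received test compound or vehicle. Survival was recorded in each group, and the value is the treated-group measurement divided by that of the vehicle-treated control group.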
# [1] = dose: 12.5 mg/kg/injection, schedule: Q01DX009 (ip), vehicle: Klucel (hydroxypropylcellulose) (HPC)
# [2] = dose: 25.0 mg/kg/injection, schedule: Q01DX009 (ip), vehicle: Klucel (hydroxypropylcellulose) (HPC)
# [3] = dose: 50.0 mg/kg/injection, schedule: Q01DX009 (ip), vehicle: Klucel (hydroxypropylcellulose) (HPC)
# [4] = dose: 100.0 mg/kg/injection, schedule: Q01DX009 (ip), vehicle: Klucel (hydroxypropylcellulose) (HPC)
# [5] = dose: 200.0 mg/kg/injection, schedule: Q01DX009 (ip), vehicle: Klucel (hydroxypropylcellulose) (HPC)
# [6] = dose: 50.0 mg/kg/injection, schedule: Q01DX009 (ip), vehicle: saline
# [7] = dose: 100.0 mg/kg/injection, schedule: Q01DX009 (ip), vehicle: saline
# [8] = dose: 200.0 mg/kg/injection, schedule: Q01DX009 (ip), vehicle: saline
# [9] = dose: 50.0 mg/kg/injection, schedule: Q01DX009 (ip), vehicle: saline with Tween-80
# [10] = dose: 100.0 mg/kg/injection, schedule: Q01DX009 (ip), vehicle: saline with Tween-80
# [11] = dose: 200.0 mg/kg/injection, schedule: Q01DX009 (ip), vehicle: saline with Tween-80
# [12] = dose: 100.0 mg/kg/injection, schedule: Q04DX003 (ip), vehicle: saline
# [13] = dose: 200.0 mg/kg/injection, schedule: Q04DX003 (ip), vehicle: saline
# [14] = dose: 400.0 mg/kg/injection, schedule: Q04DX003 (ip), vehicle: saline
# [15] = dose: 60.0 mg/kg/injection, schedule: Q01DX005 (ip), vehicle: saline with Tween-80
# [16] = dose: 120.0 mg/kg/injection, schedule: Q01DX005 (ip), vehicle: saline with Tween-80
# [17] = dose: 240.0 mg/kg/injection, schedule: Q01DX005 (ip), vehicle: saline with Tween-80
smiles,measurement,setting,value
O=NN(CCCl)C(=O)NC1CCN(Cc2ccccc2)CC1,T/C,"dose: 12.5 mg/kg/injection, schedule: Q04DX003 (ip), vehicle: other",154 % of control
same,T/C,"dose: 12.5 mg/kg/injection, schedule: Q04DX003 (ip), vehicle: water",184 % of control
same,T/C,"dose: 25.0 mg/kg/injection, schedule: Q04DX003 (ip), vehicle: other",183 % of control
same,T/C,"dose: 25.0 mg/kg/injection, schedule: Q04DX003 (ip), vehicle: water",225 % of control
same,T/C,"dose: 50.0 mg/kg/injection, schedule: Q04DX003 (ip), vehicle: other",287 % of control
same,T/C,"dose: 50.0 mg/kg/injection, schedule: Q04DX003 (ip), vehicle: water",281 % of control
same,T/C,"dose: 100.0 mg/kg/injection, schedule: Q04DX003 (ip), vehicle: other",361 % of control
[B-]([C+]1CCCCC1)N1C=CC=CC1,T/C,"dose: 50.0 mg/kg/injection, schedule: Q01DX005 (ip), vehicle: Klucel (hydroxypropylcellulose) (HPC)",100 % of control
same,T/C,"dose: 100.0 mg/kg/injection, schedule: Q01DX005 (ip), vehicle: Klucel (hydroxypropylcellulose) (HPC)",98 % of control
same,T/C,"dose: 200.0 mg/kg/injection, schedule: Q01DX005 (ip), vehicle: Klucel (hydroxypropylcellulose) (HPC)",97 % of control
Cc1nc(C(N)=O)c(=O)[nH]c1C,T/C,"dose: 33.0 mg/kg/injection, schedule: Q04DX003 (ip), vehicle: saline",100 % of control
same,T/C,"dose: 50.0 mg/kg/injection, schedule: Q04DX003 (ip), vehicle: saline",100 % of control
same,T/C,"dose: 75.0 mg/kg/injection, schedule: Q04DX003 (ip), vehicle: saline",100 % of control
same,T/C,"dose: 100.0 mg/kg/injection, schedule: Q04DX003 (ip), vehicle: saline with Tween-80",100 % of control
same,T/C,"dose: 200.0 mg/kg/injection, schedule: Q04DX003 (ip), vehicle: saline with Tween-80",106 % of control
same,T/C,"dose: 400.0 mg/kg/injection, schedule: Q04DX003 (ip), vehicle: saline with Tween-80",106 % of control
O=c1ccs[nH]1,T/C,"dose: 3.12 mg/kg/injection, schedule: Q01DX009 (ip), vehicle: Klucel (hydroxypropylcellulose) (HPC)",100 % of control
same,T/C,"dose: 6.25 mg/kg/injection, schedule: Q01DX009 (ip), vehicle: Klucel (hydroxypropylcellulose) (HPC)",102 % of control and 104 % of control and 117 % of control
same,T/C,[1],102 % of control and 114 % of control and 124 % of control
same,T/C,[2],100 % of control and 90 % of control
Cn1cccc/c1=N\N,T/C,"dose: 100.0 mg/kg/injection, schedule: Q04DX002 (ip), vehicle: saline",100 % of control
same,T/C,"dose: 200.0 mg/kg/injection, schedule: Q04DX002 (ip), vehicle: saline",99 % of control
CCOC(=O)/C=C(\C)NCCSSCCN/C(C)=C/C(=O)OCC,T/C,[3],100 % of control
same,T/C,[4],97 % of control
same,T/C,[5],90 % of control
O=C1CCC(c2ccccc2)=NN1,T/C,[6],100 % of control
same,T/C,[7],106 % of control
same,T/C,[8],103 % of control
same,T/C,"dose: 400.0 mg/kg/injection, schedule: Q01DX009 (ip), vehicle: saline",97 % of control
CSC#CC(Sc1c(Cl)c(Cl)c(Cl)c(Cl)c1Cl)=C(Sc1c(Cl)c(Cl)c(Cl)c(Cl)c1Cl)Sc1c(Cl)c(Cl)c(Cl)c(Cl)c1Cl,T/C,[9],99 % of control
same,T/C,[10],93 % of control
same,T/C,[11],92 % of control
C=C(C)C(=O)N/C(N)=N\C(N)=O,T/C,"dose: 50.0 mg/kg/injection, schedule: Q01DX005 (ip), vehicle: saline",98 % of control
same,T/C,"dose: 100.0 mg/kg/injection, schedule: Q01DX005 (ip), vehicle: saline",101 % of control
same,T/C,"dose: 200.0 mg/kg/injection, schedule: Q01DX005 (ip), vehicle: saline",112 % of control
O=C(O)c1ccccc1.[Eu],T/C,[1],88 % of control
same,T/C,[2],87 % of control
same,T/C,[3],89 % of control and 92 % of control
same,T/C,[4],90 % of control
same,T/C,[5],89 % of control
COC(=O)C1C(=O)COc2ccccc21 (centres undefined),T/C,[12],105 % of control
same,T/C,[13],106 % of control
same,T/C,[14],106 % of control
Cc1ccccc1OCC1COCN(C(C)(C)C)CO1 (centres undefined),T/C,[15],100 % of control
same,T/C,[16],107 % of control
same,T/C,[17],102 % of control
CC(=O)N(C(C)=O)/C(=C/c1cn(C(C)=O)c2ccccc12)C(=O)c1ccc(C)cc1,T/C,"dose: 100.0 mg/kg/injection, schedule: Q01DX001 (ip), vehicle: saline with Tween-80",105 % of control
same,T/C,"dose: 200.0 mg/kg/injection, schedule: Q01DX001 (ip), vehicle: saline with Tween-80",104 % of control
same,T/C,"dose: 400.0 mg/kg/injection, schedule: Q01DX001 (ip), vehicle: saline with Tween-80",98 % of control
CCCCCCC1C(C#N)C(=O)NC(=O)C1C#N (centres undefined),T/C,[3],96 % of control
same,T/C,[4],95 % of control
same,T/C,[5],93 % of control
NCCC(=O)CN,T/C,[12],104 % of control
same,T/C,[13],109 % of control
same,T/C,[14],104 % of control
O=c1[nH]cc(Br)c2ccccc12,T/C,"dose: 25.0 mg/kg/injection, schedule: Q04DX002 (ip), vehicle: saline with Tween-80",92 % of control
same,T/C,"dose: 50.0 mg/kg/injection, schedule: Q04DX002 (ip), vehicle: saline with Tween-80",93 % of control
same,T/C,"dose: 100.0 mg/kg/injection, schedule: Q04DX002 (ip), vehicle: saline with Tween-80",96 % of control
O=C1CCCCC=C1Cl,T/C,[6],96 % of control
same,T/C,[7],98 % of control
same,T/C,[8],108 % of control
FC(F)C(F)(F)C(F)(F)C(F)(F)COCC1(COCC(F)(F)C(F)(F)C(F)(F)C(F)F)COC1,T/C,[9],100 % of control
same,T/C,[10],106 % of control
same,T/C,[11],109 % of control
c1cc(Cc2ccsc2)cs1,T/C,[15],104 % of control
same,T/C,[16],104 % of control
same,T/C,[17],106 % of control
COc1cc2c(=O)oc3c(OC)c(O)cc4c(=O)oc(c1OC)c2c34,T/C,"dose: 2.0 mg/kg/injection, schedule: Q01DX005 (ip), vehicle: saline with Tween-80",97 % of control
same,T/C,"dose: 4.0 mg/kg/injection, schedule: Q01DX005 (ip), vehicle: saline with Tween-80",100 % of control and 96 % of control and 98 % of control
same,T/C,"dose: 8.0 mg/kg/injection, schedule: Q01DX005 (ip), vehicle: saline with Tween-80",92 % of control and 96 % of control and 98 % of control
same,T/C,"dose: 16.0 mg/kg/injection, schedule: Q01DX005 (ip), vehicle: saline with Tween-80",87 % of control and 91 % of control
same,T/C,"dose: 32.0 mg/kg/injection, schedule: Q01DX005 (ip), vehicle: saline with Tween-80",89 % of control
COc1ccc2c(Nc3ccc(NS(C)(=O)=O)cc3)c3ccccc3nc2c1,T/C,"dose: 0.07 mg/kg/injection, schedule: Q01DX009 (ip), vehicle: saline",99 % of control
same,T/C,"dose: 0.1 mg/kg/injection, schedule: Q01DX009 (ip), vehicle: saline",113 % of control
same,T/C,"dose: 0.15 mg/kg/injection, schedule: Q01DX009 (ip), vehicle: saline",116 % of control
same,T/C,"dose: 0.23 mg/kg/injection, schedule: Q01DX009 (ip), vehicle: saline",122 % of control
same,T/C,"dose: 1.1 mg/kg/injection, schedule: Q04DX003 (ip), vehicle: saline with Tween-80",119 % of control
same,T/C,"dose: 2.5 mg/kg/injection, schedule: Q01DX009 (ip), vehicle: saline with Tween-80",164 % of control
same,T/C,"dose: 5.0 mg/kg/injection, schedule: Q01DX009 (ip), vehicle: saline with Tween-80",194 % of control
same,T/C,"dose: 9.38 mg/kg/injection, schedule: Q01DX009 (ip), vehicle: saline with Tween-80",218 % of control
same,T/C,"dose: 10.0 mg/kg/injection, schedule: Q01DX009 (ip), vehicle: saline with Tween-80",270 % of control
same,T/C,"dose: 13.2 mg/kg/injection, schedule: Q04DX003 (ip), vehicle: saline with Tween-80",163 % of control
same,T/C,"dose: 18.7 mg/kg/injection, schedule: Q01DX009 (ip), vehicle: saline with Tween-80",97 % of control
same,T/C,"dose: 20.0 mg/kg/injection, schedule: Q04DX003 (ip), vehicle: saline with Tween-80",168 % of control
same,T/C,"dose: 22.0 mg/kg/injection, schedule: Q04DX003 (ip), vehicle: saline with Tween-80",175 % of control
same,T/C,"dose: 30.0 mg/kg/injection, schedule: Q04DX003 (ip), vehicle: saline with Tween-80",200 % of control
same,T/C,"dose: 33.0 mg/kg/injection, schedule: Q04DX003 (ip), vehicle: saline with Tween-80",204 % of control
same,T/C,"dose: 50.0 mg/kg/injection, schedule: Q04DX003 (ip), vehicle: saline with Tween-80",216 % of control
same,T/C,"dose: 75.0 mg/kg/injection, schedule: Q04DX003 (ip), vehicle: saline with Tween-80",237 % of control
